Measurements as given in patent publication US20230149362A1, “NEW CAPSULE COMPOSITION FOR PERORAL ADMINISTRATION” (Vicore Pharma AB, priority 2020, published 2023).
Counter-ions that a name gives are not always drawn.

How the values were obtained:
Format in all cases: physicochemical
[1] = Compatibility study of C21 sodium salt with lipid-based ingredients and capsule shell components
Procedure: Experiments were then performed to assess the chemical compatibility of C21 with selected pharmaceutically-acceptable lipid-based ingredients (some, but not all, of which were also studied in Example 3 above), as well as the main soft shell gelatin capsule components, under accelerated conditions.
The compatibility study was performed by storing at 40° C. and 75% RH for eight weeks in a climatic chamber (Weiss Technik), during which an analysis of impurities formed was performed after four (T4) and eight (T8) weeks.
An additional experiment was performed by storing for eight weeks at room temperature in the laboratory (with controlled temperature and humidity).
Testing of C21 sodium salt in the absence of excipients was performed as a reference.
In Table 6, the generic names and the sources of the various excipients are the same as presented above, e.g. in Table 5.
Samples A0 to A16 and B1 were prepared in 20 mL glass vials, with two preparations being prepared for each time point. Samples C1 to C16 and D1 were prepared in 20 mL glass vials, with one preparation for each time point.
Assay and impurity evaluations were made using the same Waters UPLC Acquity system and essentially the same chromatographic conditions as described in Example 3 above.
The impurity analysis is summarized in Table 7 below, in which C21 assay values (I) and impurity values (II) are presented as % recovery and represent the average value obtained for each mixture on the two sample preparations.

[2] = Solubility of C21 sodium salt in aqueous vehicles; settings: for solubility: thermodynamic from solid, saturation not reached, read-out: Concentration (solubility)
Procedure: In this experiment, C21 sodium salt (Syntagon AB) was added to the vehicle, small amounts at a time. About 20-30 mg of the sodium salt was easily dissolved in all the vehicles tested. Salt was continuously added to the same sample in an attempt to obtain a saturated solution. In this way, higher amounts, such as 40-60 mg/mL could be dissolved. The solubility is probably even higher than this in the vehicles tested, but this was not established in view of the limited amount of drug compound available.

[3] = Solubility of C21 sodium salt in lipid-based excipients (UPLC)
Procedure: C21 sodium salt (RISE AB, Södertälje, Sweden) was mixed with various potential carriers in the proportions described in Table 5 below (mg of C21 per gram of excipient) and absolute solubility of C21 was determined, two and five days after mixing.
The procedure was carried out by first weighing around 2.955 g of each excipient into a 20 mL headspace vial. Then, 0.045 g of C21 was added to each vial to reach a starting concentration of 15 mg/g. A magnetic stirrer was added into each mixture to stir the dispersion during the entire study (at around 300 rpm).
Solubility was determined at room temperature in general, although some of the excipients listed below (those marked with an asterisk) are solid at room temperature, in which case solubility was determined at 60° C.
The mixtures were observed over time to confirm excipient saturation. In the case of complete C21 solubilization (i.e. no particles were visible), addition of C21 was performed until a maximum API concentration of 100 mg/g was attained.
After confirming that the saturation point had been reached, or after reaching the maximum API concentration of 100 mg/g, sampling of the mixtures were performed after two (T2) and five (T5) days of stirring.
At each tirnepoint, and for each excipient, sampling was performed. The samples were filtered prior to assaying to determine the C21 sodium salt solubility in each excipient.
Two analytical samples were prepared from the filtrate obtain a mean value.
A Waters UPLC Acquity system (CSH C18; 100×2.1 mm×1.7 μm) with a UV and a DED detector was used to quantitatively determine solubility. The following chromatograhpic conditions were applied: (A) mobile phase water with 003% TFA, (6) acetonitrile with 0.03% TFA, with gradient, flow rate 0.5 mL/min, temperature 40° C., run time 24 minutes, injection volume 2 μL at room temperature.

[4] = T4 (four weeks), 40° C. and 75% RH
[5] = T8 (eight weeks), 40° C. and 75% RH
[6] = T8 (eight weeks), Ambient temp.

## CCCCOC(=O)NS(=O)(=O)c1sc(CC(C)C)cc1-c1ccc(Cn2ccnc2)cc1 [C21 sodium salt, N-butyloxycarbonyl-3-(4-imidazol-1-ylmethylphenyl)-5-iso-butylthiophene-2-sulfonamide]
[1]; T0
  C21 assay values (I): 98.2 % recovery
  impurity values (II): 0.24 % recovery
[1]; [4]
  C21 assay values (I): 102.2 % recovery
  impurity values (II): 0.23 % recovery
[1]; [5]
  C21 assay values (I): 101.3 % recovery
  impurity values (II): 0.25 % recovery
[1]; [6]
  C21 assay values (I): 102.0 % recovery
  impurity values (II): 0.24 % recovery
[2]; aqueous buffer, vehicle PBS pH 7.4, measured pH 9.4
  solubility: > 40 mg/mL
[2]; aqueous vehicles
  solubility compared with free C21: considerably higher than free C21
[2]; saline or isotonic, vehicle 0.9% NaCl, pH 9.3
  solubility: > 40 mg/mL
[2]; vehicles tested (H2O, 0.9% NaCl, PBS), salt added continuously
  amount that could be dissolved: 40 to 60 mg/mL
[2]; water, vehicle H2O, pH 9.8
  solubility: > 65 mg/mL
[3]; Fasted Simulated Intestinal Fluid (FaSSIF), five days, room temperature
  C21 Mean Solubility T5 Assay: 10.4 mg/g
[3]; Fasted Simulated Intestinal Fluid (FaSSIF), two days, room temperature
  C21 Mean Solubility T2 Assay: 10.4 mg/g
[3]; Fed Simulated Intestinal Fluid (FeSSIF), five days, room temperature
  C21 Mean Solubility T5 Assay: 0.6 mg/g
[3]; Fed Simulated Intestinal Fluid (FeSSIF), two days, room temperature
  C21 Mean Solubility T2 Assay: 0.3 mg/g
[3]; Gelucire 43/01, five days, 60° C.
  C21 Mean Solubility T5 Assay: 0.0 mg/g
[3]; Gelucire 43/01, two days, 60° C.
  C21 Mean Solubility T2 Assay: 0.0 mg/g
[3]; Gelucire 44/14, five days, 60° C.
  C21 Mean Solubility T5 Assay: 43.9 mg/g
[3]; Gelucire 44/14, two days, 60° C.
  C21 Mean Solubility T2 Assay: 44.1 mg/g
[3]; Glyceryl monolinoleate (Maisine CC), five days, room temperature
  C21 Mean Solubility T5 Assay: 60.4 mg/g
[3]; Glyceryl monolinoleate (Maisine CC), two days, room temperature
  C21 Mean Solubility T2 Assay: 61.4 mg/g
[3]; Glyceryl monooleate (Peceol), five days, room temperature
  C21 Mean Solubility T5 Assay: 82.2 mg/g
[3]; Glyceryl monooleate (Peceol), two days, room temperature
  C21 Mean Solubility T2 Assay: 82.3 mg/g
[3]; Labrafil M2130CS, at 60° C.
  solubility: around 14 mg/g
[3]; Lauryl polyoxyl-6-glycerides (Labrafil M 2130 CS), five days, 60° C.
  C21 Mean Solubility T5 Assay: 13.5 mg/g
[3]; Lauryl polyoxyl-6-glycerides (Labrafil M 2130 CS), two days, 60° C.
  C21 Mean Solubility T2 Assay: 13.9 mg/g
[3]; Linoleoyl polyoxyl-6-glycerides (Labrafil M 2125 CS), five days, room temperature
  C21 Mean Solubility T5 Assay: 21.1 mg/g
[3]; Linoleoyl polyoxyl-6-glycerides (Labrafil M 2125 CS), two days, room temperature
  C21 Mean Solubility T2 Assay: 22.0 mg/g
[3]; Medium chain triglycerides (Miglyol 812N), five days, room temperature
  C21 Mean Solubility T5 Assay: 0.0 mg/g
[3]; Medium chain triglycerides (Miglyol 812N), two days, room temperature
  C21 Mean Solubility T2 Assay: 0.0 mg/g
[3]; Oleoyl polyoxyl-6-glycerides (Labrafil M 1944 CS), five days, room temperature
  C21 Mean Solubility T5 Assay: 20.1 mg/g
[3]; Oleoyl polyoxyl-6-glycerides (Labrafil M 1944 CS), two days, room temperature
  C21 Mean Solubility T2 Assay: 19.5 mg/g
[3]; Polyoxyethylene (20) sorbitan monooleate (Tween 80), five days, room temperature
  C21 Mean Solubility T5 Assay: 84.8 mg/g
[3]; Polyoxyethylene (20) sorbitan monooleate (Tween 80), two days, room temperature
  C21 Mean Solubility T2 Assay: 85.2 mg/g
[3]; Propylene glycol monocaprylate (Capryol PGMC), five days, room temperature
  C21 Mean Solubility T5 Assay: 7.1 mg/g
[3]; Propylene glycol monocaprylate (Capryol PGMC), two days, room temperature
  C21 Mean Solubility T2 Assay: 7.1 mg/g
[3]; Propylene glycol monolaurate (Lauroglycol 90), five days, room temperature
  C21 Mean Solubility T5 Assay: 12.4 mg/g
[3]; Propylene glycol monolaurate (Lauroglycol 90), two days, room temperature
  C21 Mean Solubility T2 Assay: 12.4 mg/g
[3]; Refined corn oil (Henry Lamotte), five days, room temperature
  C21 Mean Solubility T5 Assay: 0.0 mg/g
[3]; Refined corn oil (Henry Lamotte), two days, room temperature
  C21 Mean Solubility T2 Assay: 0.0 mg/g
[3]; Refined sesame oil (Henry Lamotte), five days of stirring, room temperature
  C21 Mean Solubility T5 Assay: 0.2 mg/g
[3]; Refined sesame oil (Henry Lamotte), two days of stirring, room temperature
  C21 Mean Solubility T2 Assay: 0.2 mg/g
[3]; Sorbitan monooleate (Montane 80), five days, room temperature
  C21 Mean Solubility T5 Assay: 61.5 mg/g
[3]; Sorbitan monooleate (Montane 80), two days, room temperature
  C21 Mean Solubility T2 Assay: 61.6 mg/g
[3]; Sorbitan trioleate (Span 85), five days, room temperature
  C21 Mean Solubility T5 Assay: 12.1 mg/g
[3]; Sorbitan trioleate (Span 85), two days, room temperature
  C21 Mean Solubility T2 Assay: 15.1 mg/g
[3]; Soya oil (Henry Lamotte), five days, room temperature
  C21 Mean Solubility T5 Assay: 0.0 mg/g
[3]; Soya oil (Henry Lamotte), two days, room temperature
  C21 Mean Solubility T2 Assay: 0.0 mg/g
[3]; Triacetin (Kollisolv GTA), five days, room temperature
  C21 Mean Solubility T5 Assay: 0.3 mg/g
[3]; Triacetin (Kollisolv GTA), two days, room temperature
  C21 Mean Solubility T2 Assay: 0.2 mg/g
[3]; triglyceride-based excipients
  solubility in words: essentially insoluble
